Test results: patent publication US12065654B2, “Plants having increased tolerance to herbicides” (BASF SE, priority 2014, dated 2024)

What was measured:
Test in all cases: Greenhouse testing of soybean plants
Assay type in all cases: in vivo, Glycine max
[1] = system: soybean plants, transgene none (WT); details: no transgene, 14 days after treatment
Method: (§1) Transgenic plants expressing heterologous HPPD or HST enzymes are tested for tolerance against HPPD-inhibiting, preferably pyrazolone, isoxazole, or triketone derivative herbicides in greenhouse experiments.
(§2) For post emergence treatment, the test plants are first grown to a height of 3 to 15 cm, depending on the plant habit, and only then treated with the herbicides. For this purpose, the test plants are either sown directly and grown in the same containers, or they are first grown separately and transplanted into the test containers a few days prior to treatment.
(§3) For testing of T0 plants, cuttings can be used. In the case of soybean plants, an optimal shoot for cutting is about 7.5 to 10 cm tall, with at least two nodes present. Each cutting is taken from the original transformant (mother plant) and dipped into rooting hormone powder (indole-3-butyric acid, IBA). The cutting is then placed in oasis wedges inside a bio-dome. Wild type cuttings are also taken simultaneously to serve as controls. The cuttings are kept in the bio-dome for 5-7 days and then transplanted to pots and then acclimated in the growth chamber for two more days. Subsequently, the cuttings are transferred to the greenhouse, acclimated for approximately 4 days, and then subjected to spray tests as indicated.
(§4) Depending on the species, the plants are kept at 10-25° C. or 20-35° C. The test period extends over 3 weeks. During this time, the plants are tended and their response to the individual treatments is evaluated. Herbicide injury evaluations are taken at 2 and 3 weeks after treatment. […] Tolerance to HPPD-inhibiting, preferably pyrazolone, isoxazole, or triketone derivative herbicides can also be assessed in Arabidopsis. In this case transgenic Arabidopsis thaliana plants are assayed for improved tolerance to HPPD-inhibiting, preferably pyrazolone, isoxazole, or triketone derivative herbicides in 48-well plates. Seeds are surface sterilized by stirring for 5 min in ethanol+water (70+30 by volume), rinsing one time with ethanol+water (70+30 by volume) and two times with a sterile, deionized water. The seeds are resuspended in 0.1% agar dissolved in water (w/v). Four to five seeds per well are plated on solid nutrient medium consisting of half-strength Murashige Skoog nutrient solution, pH 5.8 (Murashige and Skoog (1962) Physiologia Plantarum 15: 473-497). Compounds are dissolved in dimethylsulfoxid (DMSO) and added to the medium prior solidification (final DMSO concentration 0.1%). Multi well plates are incubated in a growth chamber at 22° C., 75% relative humidity and 110 μmol Phot*m−2*s−1 with 14:10 h light:dark photoperiod. Seven to ten days after seeding growth inhibition is evaluated by comparison to wild type plants. Tolerance factor is calculated by dividing the plant growth IC50 value of transgenic plants containing a HPPD and/or HST sequence by that of wildtype plants.
(§5) Transgenic soy plants were sprayed with a range of doses from 6.25-100 g/ha with an HPPD-inhibiting herbicide and injury evaluations were taken two weeks after treatment. […] Compared to the untransformed wild-type, plants comprising polynucleotides encoding for Arabidopsis HPPD wild-type or mutated versions thereof were less susceptible to Inhibitor 1.

[2] = system: transgenic soybean plants AtHPPD M335H, event SDS-9863; details: soybean AtHPPD M335H SDS-9863, 14 days, average of 8 T1 individuals
Method: as §1, §2, §3, §4, §5

[3] = system: transgenic soybean plants GmHPPD, event SDS-10298; details: soybean GmHPPD SDS-10298, 14 days, average of 8 T1 individuals
Method: as §1, §2, §3, §4, §5

Which results are given for `Cc1c(C(=O)c2cnn(C)c2O)ccc(S(C)(=O)=O)c1C1=NOCC1` [Inhibitor 1, [3-(4,5-dihydroisoxazol-3-yl)-2-methyl-4-methylsulfonyl-phenyl]-(5-hydroxy-1-methyl-pyrazol-4-yl)methanone]?
Injury evaluation (bleaching phenotype, scale of 1-100) ([1]; 25 g/ha): 90%; Injury evaluation (bleaching phenotype, scale of 1-100) ([1]; 100 g/ha): 90%; Injury evaluation (bleaching phenotype, scale of 1-100) ([2]; 6.25 g/ha): 0%; Injury evaluation (bleaching phenotype, scale of 1-100) ([2]; 25 g/ha): 4%; Injury evaluation (bleaching phenotype, scale of 1-100) ([2]; 100 g/ha): 59%; Injury evaluation (bleaching phenotype, scale of 1-100) ([3]; 6.25 g/ha): 20%; Injury evaluation (bleaching phenotype, scale of 1-100) ([3]; 25 g/ha): 58%; Injury evaluation (bleaching phenotype, scale of 1-100) ([3]; 100 g/ha): 83%
